From patent publication US5869714A, “Salts of omega-3-polyunsaturated fatty acids and pharmaceutical formulations containing them” (Prospa B.V., priority 1994, dated 1999)
Where a name gives a salt, the structure may show the parent alone.

Tests used:
[1] = tested on: erythrocyte phospholipids; experiment: DHA content of erythrocyte phospholipids in healthy volunteers after 3 weeks oral treatment; format: in vivo; settings: 1 g of DHA daily for 3 weeks
Method: Considering that the phospholipid class of the erythrocyte membrane, along with the degree of unsaturation of the acyl chains, does condition red cell deformability and blood viscosity, it has been conducted a study to ascertain the effect of the salts in question on erythrocyte phospholipid composition, which we describe hereunder in illustration. 8 healthy volunteers were then selected and divided into 4 groups which were treated by oral route for 3 weeks with a daily quantity of DHA 1.0 g in the form of ethyl ester (1.1 g), sodium salt (1.1 g), choline salt (1.3 g) and ethanolamine salt (1.2 g). Before and after treatment samples of venous blood were collected and sodium citrate added, then the erythrocytes were isolated, washed for 3 times with saline solution (0.15M NaCl, pH 7.4) at 0° and again suspended in saline solution. 1-ml samples from the red cell suspensions were treated with 5 ml of methanol for 10 minutes then with 5 ml of chloroform containing 2 mg/100 ml of the antioxidant 2,6-di-tert.butyl-4-methyl-phenol (BHT). The organic solvents originating from 3 extractions were evaporated to dryness and the residue, formed by the erythrocyte phospholipids, was subjected to bidimensional chromatography according to Turner J. D. and Rouser G., Anal. Biochem. (Part 1--Erythrocyte lipids), 38, 423, 1970 to separate the different phospholipid classes: silica gel 60H (90 g, Merck) plus Fluorisil (7.2 g, BDH Chemicals) plates were used; the solvent systems consisted of chloroform:methanol: 25% ammonia:water (90:54:5.5:5.5) and chloroform:methanol:acetone:acetic acid:water (60:20:80:20:10). The various classes were identified against standard phospolipids (Sigma Chemical). A sample of total phospholipids and the various stains isolated were treated with 1.5 ml of boron trifluoride-methanol for 1 h at 65° C. under nitrogen, to prepare the methyl esters of the acids contained in the phospholipids to undergo gas-chromatography. To this end a Hewlet-Packard 5890 gas-chromatograph was used, fitted with a ionisation flame detector and with an HPl column 25 m in length and 0.31 mm in int. diameter; elium was used as the carrier gas, the injection port temperature was 320° C. and the detector temperature 340° C. The chamber temperature was programmed at 170° C. for 1 min., then increased by 4°°C./min up to 250° C. and kept at this temperature for 15 minutes.

[2] = tested on: thrombus growth rate induced by ADP in the hamster microvascular system; experiment: in vivo antithrombotic action: growth rate of thrombus induced by ADP in hamster microvascular system; parameters: species or system hamster (Mesocricetus auratus); settings: oral; for percentage reduction in ADP-induced thrombus growth rate, of the order of max.: maximum; for antithrombotic activity (in words): 10 days
Description: Considered however that this action is not fully indicative of the possible therapeutic effects of a drug, we measured the in vivo effect of the new salts in extremely significant tests, by determining for instance, their effect on growth rate of a thrombus induced by a known aggregatory agent (adenosine diphosphate; ADP) in the hamster microvascular system (in vivo antithrombotic action).
(§1) In the course of a typical experiment, male hamsters of the Mesocricetus auratus genus, weighing 95-115 g, were acclimatized for 1 week in the laboratory before starting the study, then semi-chronically treated by oral route, for 10 consecutive days with the products under examination. More precisely, the animals were divided into 4 groups: group I received the vehicle alone, group II received DHA ethyl ester 100 mg/kg (equivalent to DHA 92 mg/kg), group III and IV were given DHA 50 mg/kg in the form of ethanolamine salt (59.3 mg/kg) and choline salt (65.7 mg/kg respectively).One hour following the last dose the animals were anaesthetized with sodium pentobarbitone (90 mg/kg, i.p.), the cheek pouch everted with a cotton wool bud and the upper layer and the underlying a vascular connective tissue removed with ophthalmic scissors to expose the lower vascular layer which was then bathed with saline solution and examined under a Leitz Dialux microscope (magnification×250).
Evaluation of the antithrombotic activity requires measuring the growth rate of a thrombus (white body) in the microcirculation induced by the iontophoresis of ADP from a micropipette through the vessel wall. A micropipette of diameter 12μ was filled with 10^-2 M solution of ADP connected with a silver/silver chloride reference electrode placed in the animal's mouth and applied to a venule of diameter 16-40μ. By applying a negative potential to the micropipette, ADP (2×10^-14moles per second) was injected which caused the formation of a white body (platelet thrombus) gradually growing from the wall of the venule. The growth rate of the thrombus was determined by the time taken for 30%, 50% and 90% of the white body to form, 100% referring to total occlusion of the vessel with stasis. When the current was switched off, the white body rapidly embolised and no new white bodies formed until the current was re-applied. Inhibition of thrombus growth rate was calculated by comparing measurements in treated animals with those obtained in the control group (Table 2).

[3] = tested on: arteriolar thrombus disaggregation; experiment: thrombolytic action: arteriolar thrombus disaggregation time after electrical vascular damage in the hamster; format: in vivo, hamster (Mesocricetus auratus); settings: oral; for thrombolytic activity (in words): 10 days
Method: Through a different in vivo experimental model also the effect on thrombus formation and disaggregation was evaluated in the hamster, following vascular damage induced by electrical stimulation (thrombolytic action).
as §1
For the evaluation of the thrombolytic activity a micropipette was filled with 1.0M potassium chloride, applied to an arteriole of diameter 40-60μ and connected to a reference electrode placed in the animal's mouth. A negative potential was applied for 5 seconds using a Grass S48 stimulator to produce a current of 20-30 μA. A second micropipette containing 10^-2 M ADP was applied to the site of electrical damage and a negative potential applied, for 3 seconds. After the current was switched off, the time taken for the resultant thrombus to form and to disaggregate (about 40 seconds) was recorded using a stopwatch. The process of ADP stimulation of the arteriole damaged site was repeated several times and the mean was recorded of the values obtained over one hour and compared with that of the control animals.
The percentage change in the persistence of the thrombus adhering to the damaged site in the treated and untreated animals is therefore an index of the thrombolytic activity of the drug (Table 3).

[4] = water solubility; format: physicochemical
[5] = 60 minutes post-dose, equiv. to DHA 50 mg/kg × 10 days
[6] = 70 minutes post-dose, equiv. to DHA 50 mg/kg × 10 days
[7] = 80 minutes post-dose, equiv. to DHA 50 mg/kg × 10 days
[8] = 90 minutes post-dose, equiv. to DHA 50 mg/kg × 10 days
[9] = 100 minutes post-dose, equiv. to DHA 50 mg/kg × 10 days
[10] = 110 minutes post-dose, equiv. to DHA 50 mg/kg × 10 days
[11] = 120 minutes post-dose, equiv. to DHA 50 mg/kg × 10 days
[12] = equiv. to DHA 50 mg/kg × 10 days
[13] = 60-70 minutes post-dose, equiv. to DHA 50 mg/kg × 10 days
[14] = 70-80 minutes post-dose, equiv. to DHA 50 mg/kg × 10 days
[15] = 80-90 minutes post-dose, equiv. to DHA 50 mg/kg × 10 days
[16] = 90-100 minutes post-dose, equiv. to DHA 50 mg/kg × 10 days
[17] = 100-110 minutes post-dose, equiv. to DHA 50 mg/kg × 10 days
[18] = 110-120 minutes post-dose, equiv. to DHA 50 mg/kg × 10 days
[19] = maximum, equiv. to DHA 50 mg/kg × 10 days

Structure (SMILES)	Percent increase in DHA content of erythrocyte phospholipids as compared to baseline values: Phosphatidylcholine [1] [%]	Percent increase in DHA content of erythrocyte phospholipids as compared to baseline values: Phosphatidylethanolamine [1] [%]	Percent increase in DHA content of erythrocyte phospholipids as compared to baseline values: Total phospholipids [1] [%]	Percentage reduction, as compared to the controls, of thrombus growth rate induced by ADP [2, 5] [%]	Percentage reduction, as compared to the controls, of thrombus growth rate induced by ADP [2, 6] [%]	Percentage reduction, as compared to the controls, of thrombus growth rate induced by ADP [2, 7] [%]	Percentage reduction, as compared to the controls, of thrombus growth rate induced by ADP [2, 8] [%]	Percentage reduction, as compared to the controls, of thrombus growth rate induced by ADP [2, 9] [%]	Percentage reduction, as compared to the controls, of thrombus growth rate induced by ADP [2, 10] [%]	Percentage reduction, as compared to the controls, of thrombus growth rate induced by ADP [2, 11] [%]	percentage reduction in ADP-induced thrombus growth rate, of the order of max. [2, 12]	antithrombotic activity (in words) [2]	Percentage reduction, as compared to the controls, of arteriolar thrombus disaggregation time [3, 13] [%]	Percentage reduction, as compared to the controls, of arteriolar thrombus disaggregation time [3, 14] [%]	Percentage reduction, as compared to the controls, of arteriolar thrombus disaggregation time [3, 15] [%]	Percentage reduction, as compared to the controls, of arteriolar thrombus disaggregation time [3, 16] [%]	Percentage reduction, as compared to the controls, of arteriolar thrombus disaggregation time [3, 17] [%]	Percentage reduction, as compared to the controls, of arteriolar thrombus disaggregation time [3, 18] [%]	thrombolytic activity (in words) [3]	water solubility [4]	other results
CC/C=C\C/C=C\C/C=C\C/C=C\C/C=C\C/C=C\CCC(=O)O [DHA choline salt]	146	38	102	15.6	35.4	28.3	34.2	20.8	20.2	24.7	33-34%	highly active	31.6	32.8	35.4	37.7	28.6	29.1	definitely more active, if given at the same doses	–	reduction in disaggregation time [3, 19]: 37-38%
CC/C=C\C/C=C\C/C=C\C/C=C\C/C=C\C/C=C\CCC(=O)O [DHA ethanolamine salt]	113	70	103	16.5	29.8	32.2	33.2	26.6	25.0	22.3	33-34%	highly active	30.3	34.2	34.5	38.1	30.4	29.8	definitely more active, if given at the same doses	totally water-soluble	reduction in disaggregation time [3, 19]: 37-38%
CC/C=C\C/C=C\C/C=C\C/C=C\C/C=C\C/C=C\CCC(=O)OCC [DHA ethyl ester, reference compound]	77	10	56	–	–	–	–	–	–	–	–	moderately active	–	–	–	–	–	–	highly active	–	Percentage reduction, as compared to the controls, of thrombus growth rate induced by ADP ([2]; 60 minutes post-dose, 100 mg/kg × 10 days): 5.5%; Percentage reduction, as compared to the controls, of thrombus growth rate induced by ADP ([2]; 70 minutes post-dose, 100 mg/kg × 10 days): 12.5%; Percentage reduction, as compared to the controls, of thrombus growth rate induced by ADP ([2]; 80 minutes post-dose, 100 mg/kg × 10 days): 26.3%; Percentage reduction, as compared to the controls, of thrombus growth rate induced by ADP ([2]; 90 minutes post-dose, 100 mg/kg × 10 days): 17.4%; Percentage reduction, as compared to the controls, of thrombus growth rate induced by ADP ([2]; 100 minutes post-dose, 100 mg/kg × 10 days): 15.1%; Percentage reduction, as compared to the controls, of thrombus growth rate induced by ADP ([2]; 110 minutes post-dose, 100 mg/kg × 10 days): 8.7%; Percentage reduction, as compared to the controls, of thrombus growth rate induced by ADP ([2]; 120 minutes post-dose, 100 mg/kg × 10 days): 14.9%; Percentage reduction, as compared to the controls, of arteriolar thrombus disaggregation time ([3]; 60-70 minutes post-dose, 100 mg/kg × 10 days): 21.4%; Percentage reduction, as compared to the controls, of arteriolar thrombus disaggregation time ([3]; 70-80 minutes post-dose, 100 mg/kg × 10 days): 30.5%; Percentage reduction, as compared to the controls, of arteriolar thrombus disaggregation time ([3]; 80-90 minutes post-dose, 100 mg/kg × 10 days): 36.2%; Percentage reduction, as compared to the controls, of arteriolar thrombus disaggregation time ([3]; 90-100 minutes post-dose, 100 mg/kg × 10 days): 32.9%; Percentage reduction, as compared to the controls, of arteriolar thrombus disaggregation time ([3]; 100-110 minutes post-dose, 100 mg/kg × 10 days): 27.8%; Percentage reduction, as compared to the controls, of arteriolar thrombus disaggregation time ([3]; 110-120 minutes post-dose, 100 mg/kg × 10 days): 25.9%; percentage reduction in arteriolar thrombus disaggregation time ([3]; maximum, 100 mg/kg × 10 days): 36.2%
CC/C=C\C/C=C\C/C=C\C/C=C\C/C=C\C/C=C\CCC(=O)O [DHA sodium salt, reference compound]	–	–	–	–	–	–	–	–	–	–	–	–	–	–	–	–	–	–	–	–	Percent increase in DHA content of erythrocyte phospholipids as compared to baseline values: Phosphatidylcholine ([1]; sodium salt): 93%; Percent increase in DHA content of erythrocyte phospholipids as compared to baseline values: Phosphatidylethanolamine ([1]; sodium salt): 25%; Percent increase in DHA content of erythrocyte phospholipids as compared to baseline values: Total phospholipids ([1]; sodium salt): 75%
CC/C=C\C/C=C\C/C=C\C/C=C\C/C=C\CCCC(=O)O [EPA choline salt]	–	–	–	–	–	–	–	–	–	–	–	–	–	–	–	–	–	–	–	water-soiuble	–
CC/C=C\C/C=C\C/C=C\C/C=C\C/C=C\CCCC(=O)O [EPA ethanolamine salt]	–	–	–	–	–	–	–	–	–	–	–	–	–	–	–	–	–	–	–	highly water-soluble	–
